Results as given in patent publication US20040010036A1, “N,N, -Substituted s-Aryl-Isothioureas, N,N,N, -Substituted s-Aryl-Isothioureas and combinatorial libraries thereof” (priority 2002, published 2004).

Test system: Streptococcus pyogenes (ATCC# 97-03 14289)
Assay: Anti-microbial screen (percent inhibition of growth, OD 570 nm)
Assay type: cell-based
Conditions: Spy4H: Streptococcus pyogenes, read at 4 hours, OD 570 nm; Conc 0.1776 mg ml
Summary of the method: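 Frozen stock diluted into 2×THB, compounds in DMSO added at time zero. OD 570 nm read at 0 h to correct for insoluble or coloured compounds and again at 4 h. Percent growth inhibition calculated against blank-corrected solvent controls.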

How did the inhibition of growth at 177.6 µg/mL turn out when COCCN(Cc1ccc(O)cc1)/C(=N\c1ccc(Cl)c([N+](=O)[O-])c1)Sc1ccc(C)cc1C [Cmpd 1063] was run?
Its inhibition of growth at 177.6 µg/mL is 73.8%.

COc1cccc(CN(Cc2ccc(O)cc2)/C(=N/c2cc(Cl)cc(Cl)c2)Sc2cccc(C)c2)c1 [Cmpd 1093] was tested. Which inhibition of growth at 177.6 µg/mL did it give?
Its inhibition of growth at 177.6 µg/mL is 87.1%.

With COc1cccc(CN(Cc2ccc(O)cc2)/C(=N/c2ccc(Cl)c([N+](=O)[O-])c2)Sc2cccc(C)c2)c1 [Cmpd 1103] as the compound, how does the inhibition of growth at 177.6 µg/mL read?
The inhibition of growth at 177.6 µg/mL was 59.5%.

COc1cccc(CN(Cc2ccc(O)cc2)/C(=N/c2cc(C)ccc2OC)Sc2cccc(C)c2)c1 [Cmpd 1109] was tested. Which inhibition of growth at 177.6 µg/mL did it give?
The inhibition of growth at 177.6 µg/mL was 57.8%.

COc1cccc(CN(Cc2ccc(O)cc2)/C(=N/c2ccc(Cl)c(C(F)(F)F)c2)Sc2cccc(C)c2)c1 [Cmpd 1113] was tested. Which inhibition of growth at 177.6 µg/mL did it give?
The inhibition of growth at 177.6 µg/mL was 64.3%.

For Cc1cccc(S/C(=N/c2ccc(C(F)(F)F)cc2)N(Cc2ccccc2)Cc2cccc(O)c2)c1 [Cmpd 1127], which inhibition of growth at 177.6 µg/mL is on record?
Its inhibition of growth at 177.6 µg/mL is 88.6%.

With Cc1cccc(S/C(=N\c2cc(Cl)cc(Cl)c2)N(Cc2ccccc2)Cc2cccc(O)c2)c1 [Cmpd 1133] as the compound, how does the inhibition of growth at 177.6 µg/mL read?
The inhibition of growth at 177.6 µg/mL was 70.1%.

Which inhibition of growth at 177.6 µg/mL does the source give for Cc1cccc(S/C(=N/c2ccc(Cl)c([N+](=O)[O-])c2)N(Cc2ccccc2)Cc2cccc(O)c2)c1 [Cmpd 1143] here?
Its inhibition of growth at 177.6 µg/mL is 97.1%.

Which inhibition of growth at 177.6 µg/mL does the source give for COc1ccc(C)cc1/N=C(\Sc1cccc(C)c1)N(Cc1ccccc1)Cc1cccc(O)c1 [Cmpd 1149] here?
The inhibition of growth at 177.6 µg/mL was 76%.

How did the inhibition of growth at 177.6 µg/mL turn out when Cc1cccc(S/C(=N/c2ccc(Cl)c(C(F)(F)F)c2)N(Cc2ccccc2)Cc2cccc(O)c2)c1 [Cmpd 1153] was run?
The inhibition of growth at 177.6 µg/mL was 62.7%.

Which inhibition of growth at 177.6 µg/mL does the source give for Cc1cccc(S/C(=N\c2ccc(F)c(F)c2)N(Cc2ccccc2)Cc2cccc(O)c2)c1 [Cmpd 1156] here?
Its inhibition of growth at 177.6 µg/mL is 59.5%.

How did the inhibition of growth at 177.6 µg/mL turn out when Cc1cccc(S/C(=N\Cc2ccc(F)cc2)N(CCc2ccc(Cl)cc2)Cc2ccc(O)cc2)c1 [Cmpd 1164] was run?
The inhibition of growth at 177.6 µg/mL was 72.2%.

Cc1cccc(S/C(=N\c2ccc(C(F)(F)F)cc2)N(CCc2ccc(Cl)cc2)Cc2ccc(O)cc2)c1 [Cmpd 1167] was tested. Which inhibition of growth at 177.6 µg/mL did it give?
Its inhibition of growth at 177.6 µg/mL is 94.3%.

Which inhibition of growth at 177.6 µg/mL does the source give for Cc1cccc(S/C(=N\c2ccc(Cl)c([N+](=O)[O-])c2)N(CCc2ccc(Cl)cc2)Cc2ccc(O)cc2)c1 [Cmpd 1183] here?
The inhibition of growth at 177.6 µg/mL was 62.7%.

How did the inhibition of growth at 177.6 µg/mL turn out when Cc1ccc(S/C(=N\c2ccc(Cl)c(C(F)(F)F)c2)N(Cc2ccc(O)cc2)Cc2ccc(Cl)c(Cl)c2)cc1 [Cmpd 1233] was run?
The inhibition of growth at 177.6 µg/mL was 61.5%.

Cc1ccc(S/C(=N\Cc2ccccc2)N(Cc2cccc(O)c2)CC2CCCCC2)c(C)c1 [Cmpd 1241] was tested. Which inhibition of growth at 177.6 µg/mL did it give?
The inhibition of growth at 177.6 µg/mL was 68.2%.

Which inhibition of growth at 177.6 µg/mL does the source give for Cc1ccc(S/C(=N\c2ccc(F)c(Cl)c2)N(Cc2cccc(O)c2)CC2CCCCC2)c(C)c1 [Cmpd 1254] here?
The inhibition of growth at 177.6 µg/mL was 62.1%.

Which inhibition of growth at 177.6 µg/mL does the source give for CCc1ccc(/N=C(\Sc2ccc(C)cc2C)N(Cc2cccc(O)c2)CC2CCCCC2)cc1 [Cmpd 1260] here?
The inhibition of growth at 177.6 µg/mL was 57.3%.

For Cc1ccc(S/C(=N/c2ccc(F)c([N+](=O)[O-])c2)N(Cc2cccc(O)c2)CC2CCCCC2)c(C)c1 [Cmpd 1262], which inhibition of growth at 177.6 µg/mL is on record?
Its inhibition of growth at 177.6 µg/mL is 67.2%.

How did the inhibition of growth at 177.6 µg/mL turn out when Cc1ccc(S/C(=N\c2ccc(Cl)cc2)N(Cc2cccc(O)c2)CC2CCCCC2)c(C)c1 [Cmpd 1265] was run?
The inhibition of growth at 177.6 µg/mL was 88.3%.

With Cc1ccc(S/C(=N\c2ccc(F)c(F)c2)N(Cc2cccc(O)c2)CC2CCCCC2)c(C)c1 [Cmpd 1276] as the compound, how does the inhibition of growth at 177.6 µg/mL read?
The inhibition of growth at 177.6 µg/mL was 57.3%.

Which inhibition of growth at 177.6 µg/mL does the source give for COCCN(Cc1cccc(O)c1)/C(=N\c1ccccc1F)Sc1ccc(C)cc1C [compound 107] here?
Its inhibition of growth at 177.6 µg/mL is 75.8%.

Same assay, conditions: Streptococcus pyogenes; Assay Spy4H; Conc 0.1776 mg ml; plates read at 570 nm at 0 time and at 4 hours

Which inhibition of growth at 177.6 µg/mL does the source give for COCCN(Cc1ccc(O)cc1)/C(=N\c1ccccc1F)Sc1ccc(C)cc1C [Cmpd 1067] here?
The inhibition of growth at 177.6 µg/mL was 53%.

With COCCN(Cc1ccc(O)cc1)/C(=N\c1ccc(Cl)c(C(F)(F)F)c1)Sc1ccc(C)cc1C [Cmpd 1073] as the compound, how does the inhibition of growth at 177.6 µg/mL read?
The inhibition of growth at 177.6 µg/mL was 54.4%.

Which inhibition of growth at 177.6 µg/mL does the source give for COCCN(Cc1ccc(O)cc1)/C(=N\c1ccc(F)c(F)c1)Sc1ccc(C)cc1C [Cmpd 1076] here?
The inhibition of growth at 177.6 µg/mL was 55.1%.

How did the inhibition of growth at 177.6 µg/mL turn out when Cc1cccc(S/C(=N\c2ccc(Cl)c(Cl)c2)N(Cc2ccccc2)Cc2cccc(O)c2)c1 [Cmpd 1128] was run?
The inhibition of growth at 177.6 µg/mL was 51.5%.

Which inhibition of growth at 177.6 µg/mL does the source give for Cc1cccc(S/C(=N\c2ccc(F)c(Cl)c2)N(Cc2ccccc2)Cc2cccc(O)c2)c1 [Cmpd 1134] here?
The inhibition of growth at 177.6 µg/mL was 53.6%.

For Cc1cccc(S/C(=N\c2ccccc2[N+](=O)[O-])N(Cc2ccccc2)Cc2cccc(O)c2)c1 [Cmpd 1146], which inhibition of growth at 177.6 µg/mL is on record?
The inhibition of growth at 177.6 µg/mL was 56.4%.

How did the inhibition of growth at 177.6 µg/mL turn out when Cc1cccc(S/C(=N/c2ccc(OC(F)(F)F)cc2)N(Cc2ccccc2)Cc2cccc(O)c2)c1 [Cmpd 1155] was run?
The inhibition of growth at 177.6 µg/mL was 49.4%.

Which inhibition of growth at 177.6 µg/mL does the source give for Cc1cccc(S/C(=N\c2ccccc2[N+](=O)[O-])N(CCc2ccc(Cl)cc2)Cc2ccc(O)cc2)c1 [Cmpd 1186] here?
The inhibition of growth at 177.6 µg/mL was 52.9%.

Cc1cccc(S/C(=N\c2ccc(Cl)c(C(F)(F)F)c2)N(CCc2ccc(Cl)cc2)Cc2ccc(O)cc2)c1 [Cmpd 1193] was tested. Which inhibition of growth at 177.6 µg/mL did it give?
The inhibition of growth at 177.6 µg/mL was 53.6%.

How did the inhibition of growth at 177.6 µg/mL turn out when Cc1cccc(C/N=C(\Sc2ccc(C)cc2C)N(Cc2cccc(O)c2)CC2CCCCC2)c1 [Cmpd 1242] was run?
The inhibition of growth at 177.6 µg/mL was 54.8%.

With Cc1ccc(S/C(=N\Cc2ccc(F)cc2)N(Cc2cccc(O)c2)CC2CCCCC2)c(C)c1 [Cmpd 1244] as the compound, how does the inhibition of growth at 177.6 µg/mL read?
The inhibition of growth at 177.6 µg/mL was 53.8%.

With Cc1ccc(S/C(=N\c2ccc(F)cc2F)N(Cc2cccc(O)c2)CC2CCCCC2)c(C)c1 [Cmpd 1245] as the compound, how does the inhibition of growth at 177.6 µg/mL read?
The inhibition of growth at 177.6 µg/mL was 53.8%.

With CCOc1ccc(/N=C(/Sc2ccc(C)cc2C)N(Cc2cccc(O)c2)CC2CCCCC2)cc1 [Cmpd 1261] as the compound, how does the inhibition of growth at 177.6 µg/mL read?
Its inhibition of growth at 177.6 µg/mL is 51.9%.

Cc1ccc(S/C(=N/c2ccc(Cl)c([N+](=O)[O-])c2)N(Cc2cccc(O)c2)CC2CCCCC2)c(C)c1 [Cmpd 1263] was tested. Which inhibition of growth at 177.6 µg/mL did it give?
Its inhibition of growth at 177.6 µg/mL is 56.7%.

With Cc1ccc(S/C(=N/c2ccc(Cl)c(C(F)(F)F)c2)N(Cc2cccc(O)c2)CC2CCCCC2)c(C)c1 [Cmpd 1273] as the compound, how does the inhibition of growth at 177.6 µg/mL read?
Its inhibition of growth at 177.6 µg/mL is 52.2%.
